Data set [1] deals with Chronic lymphocytic leukemia [CLL] cells. The data set is described as follows: Protection against spontaneous apoptosis and apoptosis induced by fludarabine (PI negative and DiOC6 high cells by FACS). In kind it is cell-based, human. Conditions: one micromolar, 3 days culture, FIG. 2; for effect on untreated CLL cells (spontaneous apoptosis): PI negative and DiOC6 high cells. From the text: (§1) The malignant lymphocytes from two patients with chronic lymphocytic leukemia [CLL] were isolated by ficoll-hypaque sedimentation and suspended at a density of 1 million cells per milliliter in RPMI 1640 medium supplemented with 10% fetal bovine serum. Two hundred microliter aliquots of cells were dispersed in the wells of culture plates containing the indicated final concentrations of either PFT-α (“PFT-open”) or IBT (PFT-closed). After 3 days culture, viable cells were enumerated by fluorescence-activated cell sorting [FACS] after staining with propidium iodide [PI]. Viable cells excluded the dye [open circles]. In addition, cell metabolism was assessed by the ability of the cells to […] the tetrazolium dye MTT [closed squares].
Chronic lymphocytic leukemia [CLL] cells were cultured for 3 days as described in Example 2. Some of the cultures were supplemented with one micromolar of PFT-open or PFT-closed, as indicated. In the experiment shown in the bottom panel of FIG. 2, some of the cultures also contained the cytotoxic adenine nucleoside analog fludarabine [abbreviated F-AraA]. Fludarabine is the first line treatment for CLL, and the toxicity of the drug is dependent upon the p53 pathway. To assess healthy, viable cells, staining was done with both PI, as indicated in Example 2, and with the mitochondrial dye DiOC6. Cells that were both PI negative and DIOC6 high were enumerated by FACS.
On the technique in general: Flow cytometry measures light scatter and fluorescence of single cells or particles in a stream.

A further data set relates to mice. The settings on record: cited from earlier work.
A short description of data set [2]: nmr time course of PFT-α in DMSO-d6. In kind it is physicochemical. Conditions: time course in DMSO-d6, proton nmr.
For data set [3], the system named is malignant lymphocytes from two patients with chronic lymphocytic leukemia [CLL]. In words: Effect on B-CLL viability (PI exclusion by FACS, MTT). In kind it is cell-based, human. The settings on record: 3 days culture; viable cells by PI FACS and MTT; concentrations up to 100 micromolar; FIG. 1.
From the text: as §1

Data set [4] in a line: Cyclization of PFT-α to IBT in DMSO stock diluted with water, reversed phase HPLC at 25° C. over time. In kind it is physicochemical. On the procedure: (§2) The preparation of PFT-α was accomplished as shown in Scheme 1 by reacting 4-methyl-2-bromoacetophenone with 2-amino-4,5,6,7-tetrahydro-benzothiazole. Upon recrystallization of the PFT-α from isopropyl alcohol, it was noticed that PFT-α readily ring-closed completely to the imidazo[2,1-b]benzothiazole (IBT). Therefore, a subsequent investigation was undertaken to study the propensity of PFT-α to ring-close in protic solvents. […] Thus, PFT-α was dissolved in DMSO and water dilutions were made from this stock.

Data set [5] in a line: Ring closure of PFT-α in protic solvents at room temperature. In kind it is physicochemical. On the procedure:
as §2

For the compound `Cc1ccc(C(=O)Cn2c3c(sc2=N)CCCC3)cc1` [PFT-α], in data set [1], the “effect on untreated CLL cells (spontaneous apoptosis)” value is “nearly equivalent effects”. In addition, the “protection from lethal genotoxic stress” value in the data set with mice (6-8 Gy of gamma radiation) was “protected mice from lethal genotoxic stress”. The “promotion of tumor formation” value in the data set on mice is “without itself promoting the formation of tumors”. Moreover, in data set [2], the “conversion of PFT-α to IBT” value is listed as “spontaneous conversion of PFT-α to IBT”. For the same compound, the “CLL survival / toxicity” value in data set [3] is reported as “dose-dependently reduced CLL survival”. Further, the entries for the “% cyclized to IBT” value in data set [4] (Time 0 h), in data set [4] (Time 18 h) and in data set [4] (Time 48 h) were 5%, 28% and 42%, respectively. Further, in data set [5], the “propensity to ring-close in protic solvents” value is listed as “begins cyclizing at room temperature immediately upon dissolution in protic solvents”.
Consider `Cc1ccc(-c2cn3c4c(sc3n2)CCCC4)cc1` [IBT], for which the “effect on untreated CLL cells (spontaneous apoptosis)” value in data set [1] is on record as “nearly equivalent effects”. Moreover, the “protective effect on CLL cells treated with F-AraA (fludarabine)” value in data set [1] (with F-AraA, compared with PFT-α) is “less protective effects”. Besides, in data set [3], the “CLL survival / toxicity” value is listed as “non-toxic”.

Source of the values: patent publication US6696441B1, “Inhibition of p53-induced stress response” (The Regents of the University of California, priority 2000, dated 2004).
